From PubChem BioAssay (NCI)
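Growth conditions: 96-well plates. Treatment: test compound, 48 hours, 5 concentrations. Analysis: linear interpolation between bracketing concentrations; unreached endpoints set to highest concentration. TGI: concentration producing complete growth inhibition.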

Legend:
Assay in all cases: DTP human tumour cell line panel, 48 h
786-0 renal = system: 786-0 renal
OVCAR-5 ovarian = system: OVCAR-5 ovarian
OVCAR-8 ovarian = system: OVCAR-8 ovarian
CAKI-1 renal = system: CAKI-1 renal
NCI-H460 lung = system: NCI-H460 lung
KM12 colon = system: KM12 colon
MOLT-4 leukemia = system: MOLT-4 leukemia
DLD-1 colon = system: DLD-1 colon
HOP-62 NSCLC = system: HOP-62 NSCLC
HCT-116 colon = system: HCT-116 colon
HL-60(TB) leukemia = system: HL-60(TB) leukemia
A498 renal = system: A498 renal
NCI-H23 lung = system: NCI-H23 lung
M14 melanoma = system: M14 melanoma
NCI-H522 lung = system: NCI-H522 lung
IGROV1 ovarian = system: IGROV1 ovarian
SNB-19 CNS = system: SNB-19 CNS
SK-MEL-28 melanoma = system: SK-MEL-28 melanoma
U251 CNS = system: U251 CNS
UACC-62 melanoma = system: UACC-62 melanoma
SK-OV-3 ovarian = system: SK-OV-3 ovarian
TK-10 renal = system: TK-10 renal
XF 498 CNS = system: XF 498 CNS
HS 578T breast = system: HS 578T breast
OVCAR-4 ovarian = system: OVCAR-4 ovarian
RXF 393 renal = system: RXF 393 renal
LXFL 529 NSCLC = system: LXFL 529 NSCLC
MALME-3M melanoma = system: MALME-3M melanoma
RXF-631 renal = system: RXF-631 renal
PC-3 prostate = system: PC-3 prostate
MDA-N = system: MDA-N
EKVX NSCLC = system: EKVX NSCLC
MDA-MB-231 breast = system: MDA-MB-231 breast
SF-268 CNS = system: SF-268 CNS
SW-620 colon = system: SW-620 colon
SF-539 CNS = system: SF-539 CNS
SF-295 CNS = system: SF-295 CNS
SK-MEL-2 melanoma = system: SK-MEL-2 melanoma
COLO 205 colon = system: COLO 205 colon
ACHN renal = system: ACHN renal
RPMI-8226 leukemia = system: RPMI-8226 leukemia
HCC-2998 colon = system: HCC-2998 colon
OVCAR-3 ovarian = system: OVCAR-3 ovarian
A549 NSCLC = system: A549 NSCLC
LOX IMVI melanoma = system: LOX IMVI melanoma
SK-MEL-5 melanoma = system: SK-MEL-5 melanoma
HCT-15 colon = system: HCT-15 colon
BT-549 breast = system: BT-549 breast
CCRF-CEM leukemia = system: CCRF-CEM leukemia
HOP-18 NSCLC = system: HOP-18 NSCLC
K-562 leukemia = system: K-562 leukemia
KM20L2 colon = system: KM20L2 colon
UO-31 renal = system: UO-31 renal
UACC-257 melanoma = system: UACC-257 melanoma
MDA-MB-435 = system: MDA-MB-435
SNB-75 CNS = system: SNB-75 CNS
M19-MEL melanoma = system: M19-MEL melanoma
NCI/ADR-RES ovarian = system: NCI/ADR-RES ovarian
SR leukemia = system: SR leukemia
MCF7 breast = system: MCF7 breast
NCI-H226 lung = system: NCI-H226 lung
HOP-92 NSCLC = system: HOP-92 NSCLC
SN12C renal = system: SN12C renal
HT29 colon = system: HT29 colon
DU-145 prostate = system: DU-145 prostate
DMS 114 small cell lung = system: DMS 114 small cell lung
DMS 273 small cell lung = system: DMS 273 small cell lung

Structure (SMILES): N#CCC(=O)N/N=C(\CCN1CCCC1)CC(c1ccccc1)c1c(O)c2ccccc2oc1=O (stereo unspecified)
- TGI (786-0 renal): > 100 µM
- TGI (OVCAR-5 ovarian): > 100 µM
- TGI (OVCAR-8 ovarian): > 100 µM
- TGI (CAKI-1 renal): > 100 µM
- TGI (NCI-H460 lung): > 100 µM
- TGI (KM12 colon): > 100 µM
- TGI (MOLT-4 leukemia): 61.5 µM
- TGI (DLD-1 colon): > 100 µM
- TGI (HOP-62 NSCLC): > 100 µM
- TGI (HCT-116 colon): > 100 µM
- TGI (HL-60(TB) leukemia): 59.6 µM
- TGI (A498 renal): > 85.5 µM
- TGI (NCI-H23 lung): > 100 µM
- TGI (M14 melanoma): > 100 µM
- TGI (NCI-H522 lung): > 100 µM
- TGI (IGROV1 ovarian): > 100 µM
- TGI (SNB-19 CNS): > 100 µM
- TGI (SK-MEL-28 melanoma): > 100 µM
- TGI (U251 CNS): > 100 µM
- TGI (UACC-62 melanoma): > 100 µM
- TGI (SK-OV-3 ovarian): > 100 µM
- TGI (TK-10 renal): > 100 µM
- TGI (XF 498 CNS): > 100 µM
- TGI (HS 578T breast): > 100 µM
- TGI (OVCAR-4 ovarian): > 100 µM
- TGI (RXF 393 renal): > 100 µM
- TGI (LXFL 529 NSCLC): > 100 µM
- TGI (MALME-3M melanoma): > 100 µM
- TGI (RXF-631 renal): > 100 µM
- TGI (PC-3 prostate): > 100 µM
- TGI (MDA-N): > 100 µM
- TGI (EKVX NSCLC): > 100 µM
- TGI (MDA-MB-231 breast): > 100 µM
- TGI (SF-268 CNS): > 100 µM
- TGI (SW-620 colon): > 100 µM
- TGI (SF-539 CNS): > 100 µM
- TGI (SF-295 CNS): > 100 µM
- TGI (SK-MEL-2 melanoma): > 100 µM
- TGI (COLO 205 colon): > 56.8 µM
- TGI (ACHN renal): > 100 µM
- TGI (RPMI-8226 leukemia): > 92.8 µM
- TGI (HCC-2998 colon): > 100 µM
- TGI (OVCAR-3 ovarian): > 100 µM
- TGI (A549 NSCLC): > 100 µM
- TGI (LOX IMVI melanoma): > 64.7 µM
- TGI (SK-MEL-5 melanoma): > 100 µM
- TGI (HCT-15 colon): > 100 µM
- TGI (BT-549 breast): > 100 µM
- TGI (CCRF-CEM leukemia): > 94.8 µM
- TGI (HOP-18 NSCLC): > 100 µM
- TGI (K-562 leukemia): > 100 µM
- TGI (KM20L2 colon): > 100 µM
- TGI (UO-31 renal): > 100 µM
- TGI (UACC-257 melanoma): > 100 µM
- TGI (MDA-MB-435): > 100 µM
- TGI (SNB-75 CNS): > 100 µM
- TGI (M19-MEL melanoma): > 100 µM
- TGI (NCI/ADR-RES ovarian): > 100 µM
- TGI (SR leukemia): 69.8 µM
- TGI (MCF7 breast): 45.9 µM
- TGI (NCI-H226 lung): > 100 µM
- TGI (HOP-92 NSCLC): > 100 µM
- TGI (SN12C renal): > 100 µM
- TGI (HT29 colon): > 100 µM
- TGI (DU-145 prostate): > 100 µM

Structure (SMILES): Cc1ccc(S(=O)(=O)n2cc(/C=C/C#N)c(/C=C/C#N)c2)cc1
- TGI (786-0 renal): > 100 µM
- TGI (OVCAR-5 ovarian): > 100 µM
- TGI (OVCAR-8 ovarian): > 100 µM
- TGI (NCI-H460 lung): > 100 µM
- TGI (KM12 colon): > 100 µM
- TGI (MOLT-4 leukemia): > 100 µM
- TGI (HOP-62 NSCLC): > 100 µM
- TGI (HL-60(TB) leukemia): > 100 µM
- TGI (A498 renal): > 100 µM
- TGI (NCI-H23 lung): > 100 µM
- TGI (M14 melanoma): > 100 µM
- TGI (IGROV1 ovarian): > 100 µM
- TGI (DMS 114 small cell lung): > 100 µM
- TGI (SNB-19 CNS): > 100 µM
- TGI (SK-MEL-28 melanoma): > 100 µM
- TGI (U251 CNS): > 100 µM
- TGI (UACC-62 melanoma): > 100 µM
- TGI (SK-OV-3 ovarian): > 100 µM
- TGI (TK-10 renal): > 100 µM
- TGI (XF 498 CNS): > 100 µM
- TGI (OVCAR-4 ovarian): > 100 µM
- TGI (RXF 393 renal): > 100 µM
- TGI (DMS 273 small cell lung): > 100 µM
- TGI (LXFL 529 NSCLC): > 100 µM
- TGI (MALME-3M melanoma): > 100 µM
- TGI (RXF-631 renal): > 100 µM
- TGI (EKVX NSCLC): > 100 µM
- TGI (SF-268 CNS): > 100 µM
- TGI (SW-620 colon): > 100 µM
- TGI (SF-539 CNS): > 100 µM
- TGI (SF-295 CNS): > 100 µM
- TGI (SK-MEL-2 melanoma): > 100 µM
- TGI (COLO 205 colon): > 100 µM
- TGI (ACHN renal): > 100 µM
- TGI (RPMI-8226 leukemia): > 100 µM
- TGI (OVCAR-3 ovarian): > 100 µM
- TGI (A549 NSCLC): > 100 µM
- TGI (LOX IMVI melanoma): > 100 µM
- TGI (SK-MEL-5 melanoma): > 100 µM
- TGI (HCT-15 colon): > 100 µM
- TGI (CCRF-CEM leukemia): > 100 µM
- TGI (HOP-18 NSCLC): > 100 µM
- TGI (K-562 leukemia): > 100 µM
- TGI (KM20L2 colon): > 100 µM
- TGI (UO-31 renal): > 100 µM
- TGI (UACC-257 melanoma): > 100 µM
- TGI (SNB-75 CNS): > 100 µM
- TGI (M19-MEL melanoma): > 100 µM
- TGI (HOP-92 NSCLC): 86.7 µM
- TGI (SN12C renal): > 100 µM
- TGI (HT29 colon): > 100 µM
